Test results from patent US7119206B2, “Derivative of dihydro-dibenzo (a) anthracenes and their use as selective estrogen receptor modulators” (Eli Lilly and Company, priority 2002, dated 2006).
Counter-ions that a name gives are not always drawn. Like-named read-outs stand apart in the source and are kept apart here.

Legend:
[1] = tested on: Ishikawa human endometrial tumor cells; experiment: Ishikawa cell assay (PNPP readout), agonist mode; type: cell-based; conditions: for Emax / Ishikawa Agonist % Eff: % efficacy versus the response to Tamoxifen; for Emax: read-out: Ishikawa Agonist % Eff
Text: (§1) Ishikawa human endometrial tumor cells are maintained in MEM (minimum essential medium, with Earle's salts and L-Glutamine, Gibco BRL, Gaithersburg, Md.), supplemented with 10% fetal bovine serum (FBS) (V/V), (Gibco BRL). One day prior to assay, growth media is changed to assay medium, DMEM/F-12 (3:1) (Dulbecco's Modified Eagle Medium: Nutrient Mixture F-12, 3:1 Mixture, phenol red-free, Gibco BRL) supplemented with 5% dextran coated charcoal stripped fetal bovine serum (DCC-FBS) (Hyclone, Logen, Utah), L-Glutamine (2 mM), MEM sodium pyruvate (1 mM), HEPES (N-[2-hydroxyethyl]piperazine-N′-[2-ethanesulfonic acid] 2 mM) all from Gibco BRL). After an overnight incubation, ishikawa cells are rinsed with Dulbecco's Phosphate Buffered Saline (1×) (D-PBS) without Ca^+2 and Mg^+2 (Gibco BRL), and trypsinized by a 3 minute incubation with 0.25% Trypsin/EDTA, phenol red-free (Gibco BRL). Cells are resuspended in assay medium and adjusted to 250,000 cells/ml. Approximately 25,000 cells in a 100 ul media are added to flat-bottom 96 wells microculture plates (Costar 3596) and incubated at 37° C. in a 5% CO2 humidified incubator for 24 hours. The next day, serial dilutions of compounds are prepared in assay medium (at 6 times the final concentration in the assay). The assay is run in dual mode, agonist and antagonist modes. For the agonist mode, plates receive 25 μl/well of assay medium followed by 25 μl/well of diluted compounds (at 6× the final concentrations). For the antagonist mode, plates receive 25 μl/well of 6 nM E2 (β-Estradiol, Sigma, St. Louis, Mo.) followed by 25 μl/well of diluted compounds (at 6× the final concentrations). After an additional 48-hour incubation at 37° C. in a 5% CO2 humidified incubator, media is aspirated from wells and 100 μl fresh assay medium is added to each microculture. Serial dilutions of compounds are prepared and added to the cells as described above. After an additional 72 hour incubation at 37° C. in a 5% CO2 humidified incubator, the assay is quenched by removing media and rinsing plates twice in Dulbecco's Phosphate Buffered Saline (1×) (D-PBS) (Gibco BRL). The plates are dried for 5 min and frozen at −70° C. for at least 1 hour. The plates are then removed from the freezer and allowed to thaw at room temperature. To each well, 100 μl of 1-Step™ PNPP (Pierce Chemical Company, Rockford, Ill.) is added. After a 20-minute incubation, plates are read on a spectophotometer at 405 nm. The data is fitted to a linear interpolation to derive EC50 (for agonist mode) or IC50 (for antagonist mode) values. For the agonist mode, a % efficacy for each compound is calculated versus the response to Tamoxifen. For the antagonist mode, a % efficacy for each compound is calculated versus E2 (1 nM) alone.

[2] = tested on: MCF-7 breast adenocarcinoma cells; experiment: MCF-7 proliferation assay (14C-thymidine), antagonist mode; type: cell-based; conditions: with 10 pM E2
Protocol: MCF-7 breast adenocarcinoma cells (ATCC HTB 22) are maintained in MEM (minimal essential medium, phenol red-free, Gibco BRL) supplemented with 10% fetal bovine serum (FBS) (V/V), L-glutamine (2 mM), sodium pyruvate (1 mM), HEPES ((N-[2-hydroxyethyl]piperazine-N′-[2-ethanesulfonic acid]10 mM}, non-essential amino acids(0.1 mM)and Penicillin Streptomycin(1×). Seven days prior to assay, MCF-7 cells are switched to assay media which is the same as maintenance medium except supplemented with 10% dextran-coated charcoal-stripped fetal bovine serum (DCC-FBS) assay medium in place of 10% FBS. MCF-7 cells are removed from flasks using 10× Trypsin EDTA (phenol red free, Gibco BRL) and diluted to 1× in (Ca++/Mg++ free HBSS (phenol red-free). Cells are adjusted to 80,000 cells/ml in assay medium. Approximately 8,000 cells (100 μl) are added to each well in 96 well Cytostar T scintillation plates (Amersham) and incubated at 37° C. in a 5% CO2 humidified incubator for 24 hours to allow cell adherence and equilibration after transfer. Serial dilutions of drugs are prepared in assay medium at 4× the final desired concentration). A 50 μl aliquot of drug dilutions (at 4× the final assay concentration) is transferred to duplicate wells followed by 50 μl assay medium for the agonist mode or 50 μl of 40 pM of E2 for the antagonist mode to a final volume of 200 μl. For each of the agonist plates, a basal level (media) and a maximum stimulated level (with 1 μM E2) is determined. For each of the antagonist plates, a basal level (media) and a E2 (10 pM) alone control is determined. After an additional 48 hours at 37° C. in a 5% CO2 humidified incubator, 20 μl of assay medium containing 0.01 μCi of ^14C-thymidine (52 mCi/mmol, […], Amersham) is added to each well. The plates are incubated overnight in the same incubator and then counted on the Wallac Microbeta counter. […] For the agonist mode, an EC50 and percent of maximum E2 stimulation and concentration of maximum stimulation is calculated.

[3] = target: T1, ERbeta receptor (Homo sapiens, UniProt Q92731); experiment: ER beta competition binding assay (3H-Estradiol); conditions: 3H-Estradiol competition; IC50 converted to Ki using Cheng-Prusoff; read-out: ER binding Ki (ERβ)
T1 construct: purchased PanVera
Protocol: (§2) Competition binding assay is run in a buffer containing 50 mM Hepes, pH 7.5, 1.5 mM EDTA, 150 mM NaCl, 10% glycerol, 1 mg/ml ovalbumin and 5 mM DTT, using 0.025 μCi per well ^3H-Estradiol(NEN #NET517 at 118 Ci/mmol, 1 mCi/ml), 10 ng/well ERAlpha or ERbeta receptor (PanVera). Competing compounds are added at 10 different concentrations. Non-specific binding is determined in the presence of 1 μM of 17-B Estradiol. The binding reaction (140 μl) is incubated for 4 hours at room temperature, then 70 μl of cold DCC buffer is added to each reaction (DCC buffer contains per 50 ml of assay buffer, 0.75 g of charcoal (Sigma) and 0.25 g of dextran (Pharmacia)). Plates are mixed 8 minutes on an orbital shaker at 4° C. Plates are then centrifuged at 3,000 rpm at 4° C. for 10 minutes. An aliquot of 120 μl of the mix is transferred to another 96-well, white flat bottom plate (Costar) and 175 μl of Wallac Optiphase “Hisafe 3” scintillation fluid is added to each well. Plates are sealed and shaken vigorously on an orbital shaker. After an incubation of 2.5 hrs, read plates in a Wallac Microbeta counter. […] The Kd for ^3H-Estradiol is determined by saturation binding to ER alpha and ER beta receptors. The IC50 values for compounds are converted to Ki using Cheng-Prusoff equation and the Kd determined by saturation binding assay.

[4] = target: T2, ERAlpha receptor (Homo sapiens, UniProt P03372); experiment: ER alpha competition binding assay (3H-Estradiol); conditions: 3H-Estradiol competition; IC50 converted to Ki using Cheng-Prusoff; read-out: ER binding Ki (ERα)
T2 construct: purchased PanVera
T2 sequence (P03372 1-595): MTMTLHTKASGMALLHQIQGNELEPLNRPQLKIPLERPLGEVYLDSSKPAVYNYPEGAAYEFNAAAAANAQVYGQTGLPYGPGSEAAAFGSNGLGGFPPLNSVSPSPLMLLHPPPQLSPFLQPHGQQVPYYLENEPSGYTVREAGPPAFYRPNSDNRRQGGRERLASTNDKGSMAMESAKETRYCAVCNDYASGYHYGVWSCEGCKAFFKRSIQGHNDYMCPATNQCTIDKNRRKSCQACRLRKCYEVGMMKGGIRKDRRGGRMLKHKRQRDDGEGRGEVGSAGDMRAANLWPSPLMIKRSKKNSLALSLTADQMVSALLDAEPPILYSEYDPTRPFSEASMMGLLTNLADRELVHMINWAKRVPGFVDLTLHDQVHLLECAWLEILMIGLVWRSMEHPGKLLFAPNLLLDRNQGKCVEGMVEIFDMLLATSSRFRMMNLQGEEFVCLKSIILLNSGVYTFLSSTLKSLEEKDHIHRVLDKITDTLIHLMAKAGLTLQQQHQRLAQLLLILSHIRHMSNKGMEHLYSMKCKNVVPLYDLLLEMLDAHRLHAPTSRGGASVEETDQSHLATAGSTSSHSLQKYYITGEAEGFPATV
Protocol: as §2

[5] = tested on: Ishikawa human endometrial tumor cells; experiment: Ishikawa cell assay (PNPP readout), antagonist mode; type: cell-based; conditions: with 1 nM E2
Text: as §1

[6] = Homo sapiens, MCF7, antagonist mode

T1 sequence (Q92731 whole entry): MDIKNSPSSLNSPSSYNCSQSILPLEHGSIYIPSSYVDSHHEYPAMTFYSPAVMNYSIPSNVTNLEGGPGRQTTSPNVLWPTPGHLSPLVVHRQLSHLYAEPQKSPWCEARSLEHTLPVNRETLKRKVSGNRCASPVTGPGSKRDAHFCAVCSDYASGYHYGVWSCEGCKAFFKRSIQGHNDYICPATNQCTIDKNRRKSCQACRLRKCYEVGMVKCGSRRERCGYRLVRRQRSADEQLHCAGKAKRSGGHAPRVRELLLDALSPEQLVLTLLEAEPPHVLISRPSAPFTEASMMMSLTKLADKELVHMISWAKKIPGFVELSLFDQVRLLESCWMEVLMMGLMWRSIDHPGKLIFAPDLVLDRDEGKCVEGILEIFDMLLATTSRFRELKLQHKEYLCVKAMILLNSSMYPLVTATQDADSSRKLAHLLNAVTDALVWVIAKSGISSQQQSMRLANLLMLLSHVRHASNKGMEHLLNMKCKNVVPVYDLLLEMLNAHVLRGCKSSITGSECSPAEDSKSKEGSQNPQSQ

Row | SMILES | EC50 [1] | IC50 ([2]; antagonist mode) | EC50 ([1]; Homo sapiens, Ishikawa) | Emax ([1]; Homo sapiens, Ishikawa) | IC50 [2, 6] | Ki [3] | Ki [4] | IC50 [5] | Ishikawa Agonist % Eff [1]
1 | Oc1ccc2c3c(ccc2c1)Cc1ccc(F)cc1C3c1ccc(OCCN2CCCCC2)cc1 (racemic) [Example 6, 10-fluoro-12-[4-(2-piperidin-1-yl-ethoxy)-phenyl]-7,12-dihydro-benzo[a]anthracen-3-ol] | 116 nM | 740 nM | – | – | – | – | – | – | –
2 | Oc1ccc2c3c(ccc2c1)Cc1c(O)cccc1C3c1ccc(OCCN2CCCCC2)cc1 (stereo not shown) [Example 13, 12-[4-(2-Piperidin-1-yl-ethoxy)-phenyl]-7,12-dihydro-benzo[a]anthracene-3,8-diol] | – | – | 1 nM | 121% | 3 nM | 5 nM | 1 nM | 50 nM | –
3 | Oc1ccc2c3c(sc2c1)Cc1ccccc1C3c1ccc(OCCN2CCCCC2)cc1 (stereo not shown) [Example 1, 11-[4-(2-Piperidin-1-yl-ethoxy)-phenyl]-6,11-dihydro-benzo[b]naphtho[2,3-d]thiophen-3-ol trifluoroacetate] | – | – | 3 nM | 77% | 17 nM | 5 nM | 2 nM | 712 nM | –
4 | Oc1ccc2c3c(sc2c1)Cc1cccc(O)c1C3c1ccc(OCCN2CCCCC2)cc1 (stereo not shown) [Example 3, 11-[4-(2-Piperidin-1-yl-ethoxy)-phenyl]-6,11-dihydro-benzo[b]naphtho[2,3-d]thiophene-3,10-diol trifluoroacetate] | – | – | 3 nM | 135% | 42 nM | 14 nM | 3 nM | 682 nM | –
5 | Oc1ccc2c(c1)C(c1ccc(OCCN3CCCCC3)cc1)c1c(sc3cc(O)ccc13)C2 (stereo not shown) [Example 4, 11-[4-(2-Piperidin-1-yl-ethoxy)-phenyl]-6,11-dihydro-benzo[b]naphtho[2,3-d]thiophene-3,9-diol] | – | – | 1 nM | 56% | 1 nM | 1 nM | 1 nM | 53 nM | –
6 | Oc1ccc2c(c1)Cc1sc3cc(O)ccc3c1C2c1ccc(OCCN2CCCCC2)cc1 (stereo not shown) [Example 2, 11-[4-(2-Piperidin-1-yl-ethoxy)-phenyl]-6,11-dihydro-benzo[b]naphtho[2,3-d]thiophene-3,8-diol trifluoroacetate] | – | – | 0.5 nM | 103% | 1 nM | 1 nM | 1 nM | 45 nM | –
7 | Oc1ccc2c3c(ccc2c1)Cc1ccc(F)cc1C3c1ccc(OCCN2CCCCC2)cc1 (single isomer, unassigned) [Example 7, 10-fluoro-12-[4-(2-piperidin-1-yl-ethoxy)-phenyl]-7,12-dihydro-benzo[a]anthracen-3-ol] | – | – | – | – | – | 9 nM | – | 440 nM | –
8 | Oc1ccc2c3c(ccc2c1)Cc1ccc(F)cc1C3c1ccc(OCCN2CCCCC2)cc1 (racemic) [Example 7, 10-fluoro-12-[4-(2-piperidin-1-yl-ethoxy)-phenyl]-7,12-dihydro-benzo[a]anthracen-3-ol] | 3 nM | 9 nM | – | – | – | – | 1 nM | – | 72%
9 | Oc1ccc2c(c1)Cc1ccc3cc(O)ccc3c1C2c1ccc(OCCN2CCCCC2)cc1 (racemic) [Example 11, 12-[4-(2-piperidin-1-yl-ethoxy)-phenyl]-7,12-dihydro-benzo[a]anthracene-3,9-diol] | 1 nM | 2 nM | – | – | – | 4 nM | – | – | 19%
10 | Oc1ccc2c3c(ccc2c1)Cc1ccc(F)cc1C3c1ccc(OCCN2CCCCC2)cc1 (single isomer, unassigned) [Example 6, 10-fluoro-12-[4-(2-piperidin-1-yl-ethoxy)-phenyl]-7,12-dihydro-benzo[a]anthracen-3-ol] | – | – | – | 69% | – | 149 nM | 70 nM | – | –
11 | Oc1ccc2c(c1)Cc1ccc3cc(O)ccc3c1C2c1ccc(OCCN2CCCCC2)cc1 (racemic) [Example 9, 12-[4-(2-Piperidin-1-yl-ethoxy)-phenyl]-7,12-dihydro-benzo[a]anthracene-3,9-diol] | 1 nM | 2 nM | – | – | – | 4 nM | – | – | 27%
12 | Oc1ccc2c(c1)Cc1ccc3cc(O)ccc3c1C2c1ccc(OCCN2CCCCC2)cc1 (racemic) [Example 10, 12-[4-(2-piperidin-1-yl-ethoxy)-phenyl]-7,12-dihydro-benzo[a]anthracene-3,9-diol] | 3 nM | – | – | – | – | 5 nM | – | – | 56%
